{
  "source": "patent US20170014467A1",
  "about": "“COMPOSITION AND THE USE THEREOF” (INFINITUS (CHINA) COMPANY LTD., priority 2015, published 2017)",
  "key": {"[1]": {"system": "hyperuricemia model of rats", "experiment": "Comparative test in potassium oxonate hyperuricemia rats: serum uric acid, urea nitrogen and creatinine (Example 23)", "assay_type": "in vivo", "details": "15 d intragastric, allopurinol 27 mg/kg + potassium oxonate 1.5 g/kg, mean ± SD", "source_text": "(license number: SOCK (Beijing) 2012-0001) were taken. […] Allopurinol, Tokyo chemical industry Co. […] Uric acid and urea nitrogen test kit were provided by Centronic GmbH company in German, with the batch numbers of UF03121HH6G and UF01121G[…] respectively, and creatinine test kit was provided by Shanghai Lanyi Technology Co. Ltd. with the batch number of […]. […] Modeling principle: the rats were intragastrically administered with the chemical uricase inhibitor, potassium oxonate to inhibit the uricase activity in the rats, which make the uric acid in their body unable to be decomposed and resulting in an increase of serum uric acid to replicate the hyperuricemia model of rats. The body weights of the rats were monitored, the blood samples were collected to measure the uric acid, creatinine and urea nitrogen before the experiments and at the 15th day of the administration, and the variance ratio of the serum uric acid levels was measured and calculated. Comparative Test […] Coicis semen 18, Cichorii Herba 8, […] Herba 8 and Pueraia Lobata Radix 8. The health food having the function of lowering uric acid provided in Comparative Example 2 of the present invention is prepared from the following components in parts by weight: Coicis semen 18, Motherwort 10, Cichorii Herba 8, […] Herba 8, Pueraia Lobata Radix 8 and tuna extract 0.1. […] Coicis semen 18, […] semen 9, Cichorii Herba 8, […] […]"}, "[2]": {"experiment": "Animal body weights in the hyperuricemia rat experiment (Example 22)", "assay_type": "in vivo, SD rats", "details": "allopurinol 27 mg/kg + potassium oxonate 1.5 g/kg, intragastric, mean ± SD", "procedure": "(§1) 105 SPF grade SD rats, all of which are male and have a body weight of 200±20 (g), provided by Beijing Vital River Laboratory Animal Technology Co., Ltd. (license number: SOCK (Beijing) 2012-0001) were taken. Potassium oxonate, Jinan Chenghuishuangda Chemical Co., Ltd. product with the batch number of 12042001, was prepared with 0.1% CMC-Na into a suspension of a concentration of 0.15 g/ml in an amount for 3 d each time and the stock was stored at 4° C. Allopurinol, Tokyo chemical industry Co. Ltd. product with the batch number of MYRYA-IR, was prepared with 0.1% CMC-Na into a suspension of a concentration of […] in an amount for 3 d each time and the stock was stored at 4° C. . Uric acid and urea nitrogen test kit were provided by Centronic GmbH company in German, with the batch numbers of UF03121HH6G and UF01121GG66G respectively, and creatinine test kit was provided by Shanghai Lanyi Technology Co. Ltd. with the batch number of R102APA.\nSD rats were adapted for 5 days in the experimental environment, and randomly divided by body weight into normal control group, model group, allopurinol group, Sample 1 (the composition of Chinese herbal medicines and tuna extract prepared in Example 18) high-dose group and low-dose group and Sample 2 (the composition of Chinese herbal medicines prepared in Example 18 excluding tuna extract) high-dose group and low-dose group. According to the clinical dose, the intragastric doses of Samples 1 and 2 were 5 times larger (0.2 ml/100 g) and 30 times larger (1.25 ml/100 g) than the recommended amount for human body for the low-dose groups and high-dose groups, respectively.\n(§2) The same volume of drinking water was intragastrically administered to the normal control group every day, and the potassium oxonate was intragastrically administered to each of the rest groups of rats every morning at 1.5 g·kg^−1·d^−1; the same volume of physiological saline was intragastrically administered to the model group in the afternoon; the allopurinol was intragastrically administered to the allopurinol group at 27 mg·kg^−1·d^−1 in the afternoon; the samples to be tested of different doses diluted to the same volume were intragastrically administered to the Sample 1 of high-dose and low-dose groups and the Sample 2 of high-dose and low-dose groups in the afternoon.\n(§3) The body weights of the rats were monitored, the blood samples were collected to measure the uric acid, creatinine and urea nitrogen before the experiments and at the 15th day of the administration, and the variance ratio of the serum uric acid levels was measured and calculated."}, "[3]": {"experiment": "Animal body weights in the comparative test (Example 23)", "assay_type": "in vivo, SD rats", "details": "allopurinol 27 mg/kg + potassium oxonate 1.5 g/kg, mean ± SD", "procedure": "as §1, §2, §3\nExperimental group: Sample 1—the composition prepared in Example 1."}, "[4]": {"system": "hyperuricemia model of rats", "experiment": "Potassium oxonate hyperuricemia model of rats: serum uric acid, urea nitrogen and creatinine after 15 d intragastric administration (Example 22)", "assay_type": "in vivo", "details": "allopurinol 27 mg/kg + potassium oxonate 1.5 g/kg", "protocol": "105 SPF grade SD rats, all of which are male and have a body weight of 200±20 (g), provided by Beijing Vital River Laboratory Animal Technology Co., Ltd. (license number: SOCK (Beijing) 2012-0001) were taken. Potassium oxonate, Jinan Chenghuishuangda Chemical Co., Ltd. product with the batch number of 12042001, was prepared with 0.1% CMC-Na into a suspension of a concentration of 0.15 g/ml in an amount for 3 d each time and the stock was stored at 4° C. Allopurinol, Tokyo chemical industry Co. Ltd. product with the batch number of MYRYA-IR, was prepared with 0.1% CMC-Na into a suspension of a concentration of 2.7 g/ml in an amount for 3 d each time and the stock was stored at 4° C. . Uric acid and urea nitrogen test kit were provided by Centronic GmbH company in German, with the batch numbers of UF03121HH6G and UF01121GG66G respectively, and creatinine test kit was provided by Shanghai Lanyi Technology Co. Ltd. with the batch number of R102APA. […]\nThe body weights of the rats were monitored, the blood samples were collected to measure the uric acid, creatinine and urea nitrogen before the experiments and at the 15th day of the administration, and the variance ratio of the serum uric acid levels was measured and calculated. […]"}},
  "data": [
    {"smiles": "Oc1ncnc2[nH]ncc12", "note": "[Allopurinol]", "values": [
      {"measurement": "Creatinine", "setting": "[1]; model group 31.0 ± 3.3", "result": "27.9 ± 2.2", "unit": "µmol/L"},
      {"measurement": "Uric Acid", "setting": "[1]; model group 256.4 ± 41.3", "result": "31.8 ± 10.3", "unit": "µmol/L"},
      {"measurement": "animal body weights, Before Experiments", "setting": "[2]; baseline, N=15", "result": "290 ± 13", "unit": "g"},
      {"measurement": "animal body weights, 1 week after treatment", "setting": "[2]", "result": "322 ± 20", "unit": "g"},
      {"measurement": "animal body weights, 2 weeks after treatment", "setting": "[2]", "result": "352 ± 24", "unit": "g"},
      {"measurement": "animal body weights, 3 weeks after treatment", "setting": "[2]", "result": "366 ± 28", "unit": "g"},
      {"measurement": "animal body weights, 4 weeks after treatment", "setting": "[2]", "result": "387 ± 29", "unit": "g"},
      {"measurement": "animal body weights, Before Experiments", "setting": "[3]; baseline, N=15", "result": "290 ± 13", "unit": "g"},
      {"measurement": "animal body weights, 1 week after treatment", "setting": "[3]", "result": "322 ± 20", "unit": "g"},
      {"measurement": "animal body weights, 2 weeks after treatment", "setting": "[3]", "result": "352 ± 24", "unit": "g"},
      {"measurement": "animal body weights, 3 weeks after treatment", "setting": "[3]", "result": "366 ± 28", "unit": "g"},
      {"measurement": "animal body weights, 4 weeks after treatment", "setting": "[3]", "result": "387 ± 29", "unit": "g"},
      {"measurement": "Creatinine", "setting": "[4]; model group 31.0 ± 3.3, mean ± SD", "result": "27.9 ± 2.2", "unit": "µmol/L"},
      {"measurement": "Uric Acid", "setting": "[4]; model group 256.4 ± 41.3, mean ± SD", "result": "31.8 ± 10.3", "unit": "µmol/L"}
    ]}
  ]
}
